Data taken from patent publication US8673265B2, “Carbonylporphyrins and uses thereof” (Brookhaven Science Associates, LLC, priority 2006, dated 2014).

Key:
EMT-6 mammary carcinomas = experiment: Biodistribution (boron concentrations in tissues) in mice bearing EMT-6 carcinomas; format: in vivo, BALB/c mice; details: for Average boron concentration, Blood / Average boron concentration, Brain / Average boron concentration, Heart / Average boron concentration, Kidneys / Average boron concentration, Liver / Average boron concentration, Skin (pinna) / Average boron concentration, Spleen / Average boron concentration, Tumor / Average boron concentration, Feces / Average boron concentration, Lungs: 3 i.p. injections over 8 hours
Description: BALB/c mice bearing subcutaneously implanted EMT-6 mammary carcinomas implanted on the dorsal thorax were given a total dose of 105 milligrams porphyrin compound V per kilogram body weight (23.7 mg B/kg). At one and two days after the last injection, mice were euthanized, and tumor, blood, brain, and liver were removed for boron analyses. The blood was first analyzed for hematologic parameters that indicate toxicity before it was analyzed for boron.
Similar to Example 8, Compound VII was given, to tumor-bearing mice except at a slightly higher total dose of 143 mg/kg body weight in 3 i.p. injections given over a period of 8 hours.

[1] = Weight changes and hematologic parameters in mice; format: in vivo, BALB/c mice
[2] = 105 mg/kg (23.7 mg B/kg), 1 day after last injection
[3] = 105 mg/kg (23.7 mg B/kg), 2 days after last injection
[4] = 143 mg/kg (30 mg B/kg), 1 day after last injection
[5] = 143 mg/kg (30 mg B/kg), 2 days after last injection

With “Copper (II) 5,15-dinitro-10,20-bis(3-[o-carboranylmethoxy]phenyl)porphyrin [Porphyrin compound V]” the “Average boron concentration, Blood” value (EMT-6 mammary carcinomas; [2]) was 34.6 ± 26.9 μg B/g, the “Average boron concentration, Brain” value (EMT-6 mammary carcinomas; [2]) was 0.5 ± 0.4 μg B/g and the “Average boron concentration, Heart” value (EMT-6 mammary carcinomas; [2]) was 9.1 ± 3.8 μg B/g. For the same substance, the “Average boron concentration, Kidneys” value (EMT-6 mammary carcinomas; [2]) was 12.7 ± 6.9 μg B/g, the “Average boron concentration, Liver” value (EMT-6 mammary carcinomas; [2]) was 145 ± 18 μg B/g and the “Average boron concentration, Skin (pinna)” value (EMT-6 mammary carcinomas; [2]) was 3.6 ± 13.0 μg B/g. For the same substance, the “Average boron concentration, Spleen” value (EMT-6 mammary carcinomas; [2]) was 76.1 ± 8.6 μg B/g, the “Average boron concentration, Tumor” value (EMT-6 mammary carcinomas; 105 mg/kg (23.7 mg B/kg), 1 day after last injection, wet tissue) was 39.2 ± 14.4 μg B/g and the “Average boron concentration, Blood” value (EMT-6 mammary carcinomas; [3]) was 1.5 ± 0.4 μg B/g. For the same substance, the “Average boron concentration, Brain” value (EMT-6 mammary carcinomas; [3]) was 0.1 ± 0.1 μg B/g, the “Average boron concentration, Feces” value (EMT-6 mammary carcinomas; [3]) was 15.2 ± 20.8 μg B/g and the “Average boron concentration, Heart” value (EMT-6 mammary carcinomas; [3]) was 7.5 ± 0.6 μg B/g. For the same substance, the “Average boron concentration, Kidneys” value (EMT-6 mammary carcinomas; [3]) was 7.1 ± 0.5 μg B/g, the “Average boron concentration, Liver” value (EMT-6 mammary carcinomas; [3]) was 226 ± 25 μg B/g and the “Average boron concentration, Lungs” value (EMT-6 mammary carcinomas; [3]) was 8.5 ± 3.0 μg B/g. The “Average boron concentration, Skin (pinna)” value (EMT-6 mammary carcinomas; [3]) was 4.8 ± 1.6 μg B/g, the “Average boron concentration, Spleen” value (EMT-6 mammary carcinomas; [3]) was 158 ± 19 μg B/g and the “Average boron concentration, Tumor” value (EMT-6 mammary carcinomas; [3]) was 49.8 ± 12.9 μg B/g. The “amount of boron delivered to the tumor” value (EMT-6 mammary carcinomas; porphyrin dose ~100 mg/kg (24 mg/kg B)) was ~50 ppm, the “percentage of injected dose in tumor per gram of wet tissue” value (EMT-6 mammary carcinomas; ~100 mg/kg (24 mg/kg B), EMT-6 tumor model) was ~10.5 %/g and the “% Weight change” value [1, 2] was −0.8 ± 1.8%. For the same substance, the Platelet count [1, 2] was 1349 ± 294 m/m^3, the White blood count [1, 2] was 9.9 ± 2.6 m/m^3 and the “% Weight change” value [1, 3] was −1.7 ± 1.7%. It also gave a Platelet count [1, 3] of 515 ± 160 m/m^3 and a White blood count [1, 3] of 11.8 ± 1.8 m/m^3.

With “copper (II) 5,15-dibromo-10,20-bis(3-[o-carboranylmethoxy]phenyl)porphyrin [Porphyrin compound VII]” the “Average boron concentration, Blood” value (EMT-6 mammary carcinomas; [4]) was 105 ± 20 μg B/g, the “Average boron concentration, Brain” value (EMT-6 mammary carcinomas; [4]) was 1.9 ± 0.5 μg B/g and the “Average boron concentration, Feces” value (EMT-6 mammary carcinomas; [4]) was 11.2 ± 2.3 μg B/g. For the same substance, the “Average boron concentration, Heart” value (EMT-6 mammary carcinomas; [4]) was 20.4 ± 4.6 μg B/g, the “Average boron concentration, Kidneys” value (EMT-6 mammary carcinomas; [4]) was 38.7 ± 7.0 μg B/g and the “Average boron concentration, Liver” value (EMT-6 mammary carcinomas; [4]) was 183 ± 19 μg B/g. For the same substance, the “Average boron concentration, Lungs” value (EMT-6 mammary carcinomas; [4]) was 35.8 ± 3.7 μg B/g, the “Average boron concentration, Skin (pinna)” value (EMT-6 mammary carcinomas; [4]) was 9.2 ± 1.8 μg B/g and the “Average boron concentration, Spleen” value (EMT-6 mammary carcinomas; [4]) was 107 ± 11 μg B/g. For the same substance, the “Average boron concentration, Tumor” value (EMT-6 mammary carcinomas; [4]) was 67.1 ± 8.5 μg B/g, the “Average boron concentration, Blood” value (EMT-6 mammary carcinomas; [5]) was 12.1 ± 9.7 μg B/g and the “Average boron concentration, Brain” value (EMT-6 mammary carcinomas; [5]) was 0.1 ± 0.2 μg B/g. For the same substance, the “Average boron concentration, Feces” value (EMT-6 mammary carcinomas; [5]) was 4.9 ± 0.6 μg B/g, the “Average boron concentration, Heart” value (EMT-6 mammary carcinomas; [5]) was 9.4 ± 1.1 μg B/g and the “Average boron concentration, Kidneys” value (EMT-6 mammary carcinomas; [5]) was 13.0 ± 3.6 μg B/g. The “Average boron concentration, Liver” value (EMT-6 mammary carcinomas; [5]) was 263 ± 34 μg B/g, the “Average boron concentration, Lungs” value (EMT-6 mammary carcinomas; [5]) was 17.8 ± 6.2 μg B/g and the “Average boron concentration, Skin (pinna)” value (EMT-6 mammary carcinomas; [5]) was 7.7 ± 1.7 μg B/g. For the same substance, the “Average boron concentration, Spleen” value (EMT-6 mammary carcinomas; [5]) was 160 ± 15 μg B/g, the “Average boron concentration, Tumor” value (EMT-6 mammary carcinomas; [5]) was 76.9 ± 14.1 μg B/g and the “% Weight change” value [1, 4] was −0.3 ± 1.4%. The Platelet count [1, 4] was 1461 ± 229 m/m^3, the White blood count [1, 4] was 8.8 ± 1.3 m/m^3 and the “% Weight change” value [1, 5] was 0.2 ± 2.2%. The Platelet count [1, 5] was 790 ± 227 m/m^3, the White blood count [1, 5] was 11.8 ± 1.8 m/m^3 and the “toxicity associated with the porphyrin” value ([1]; 143 mg/kg dose) was “little if any toxicity”.
